Article PMC4179164, “Ophiobolin A from Bipolaris oryzae Perturbs Motility and Membrane Integrities of Porcine Sperm and Induces Cell Death on Mammalian Somatic Cell Lines” (Toxins, 2014)
≈ marks a conversion by molar mass, not a printed value. Where two headings read alike, the source gives them in different places.

Assays:
[1] = Cell membrane permeability assay on motile sperm cells (PI staining); type: cell-based, boar; conditions: boar (pig), motile boar spermatozoa (commercial extended boar semen); at 800 ng mL^−1 to 1600 ng mL^−1, 37 °C, 2 h
Method: (§1) To test the effect of OPA exposure on sperm cells in physiological conditions (swimming at 37 °C) the plasma membrane disruption on motile sperm cells was measured with the viability PI stain, where the loss of plasma membrane integrity was detected as appearance of red color stained nuclei in the damaged cells. In this assay, sperm cells were exposed to OPA at 37 °C and motility of the exposed sperm cells was induced and maintained for 2 h.
(§2) Cell membrane permeability assay on motile sperm cells was inspected by staining with PI (Molecular Probes, Eugene, OR, USA) in sperm cells induced to swim by shaking at 37 °C. One hundred and fifty μL aliquots of commercial extended boar semen with a density of 27 × 10^6 sperms mL^−1 were pipetted into microtiter plate wells and serially diluted methanolic solution of OPA were added in the concentration range of 200 ng mL^−1 to 4 μg mL^−1 including 6 levels and an additional methanol blank, and pre-incubated for 2 h on orbital shaker (Innova 5000 new Brunswick Scientific, Enfield, CT, USA) (160 rpm) at 37 °C. Four parallel measurements were done for each dilution. One ml PI solution (1 mg mL^−1 in Dulbeco’s phosphate buffered saline) was mixed with 3 mL of […] Dulbeco’s phosphate buffered saline. One hundred and fifty μL of this stain mixture was added to 150 μL of exposed boar semen. This suspension was incubated for 15 min at 37 °C in dark and measured using a microplate reader (Fluoroskan Ascent, Thermo Scientific, Vantaa, Finland) at excitation and emission wavelengths of 544 nm and 600 nm, respectively. For observing plasma membrane damage by PI staining frozen-thawed semen was used as a positive control (for mortality of 100%) representing the maximal fluorescence emitted by the cells permeable to PI and Dulbeco’s phosphate buffered saline was applied as background control (blank). Loss of viability in the sample was calculated as described in Alm et al.. The frozen sample represented 100% loss of viability. The assay was calibrated with triclosan (Sigma Chemical Co., St. Louis, MO, USA), in 5 parallel tests, the EC50 was 2 μg mL^−1 (SD ± 0.6). Cell membrane permeability assay on static sperm cells at room temperature was carried out by viability staining with PI and calcein-AM (Molecular Probes, Eugene, OR, USA) according to Hoornstra et al. in same concentration range and levels described above.

boar spermatozoa = experiment: as above; type: cell-based; conditions: for EC50: Spermatozoa
Method: as §1, §2

[2] = tested on: murine neuroblastoma (MNA) cells; experiment: Somatic cell toxicity assay (resazurin reduction), MNA; type: cell-based; conditions: Mus musculus, read-out: IC50, cell proliferation
Method: Viability assays, based on resazurin-resorufin transformation, represent excellent correlation to generally used reference assays, such as formazan- and tritiated thymidine based methods. In our experiments, proliferating murine neuroblastoma (MNA), feline fetus lung (FFL) and porcine kidney (PK-15) cells were treated with OPA. […] These values were remarkably less than the concentrations causing sperm toxicity and motility inhibition.
Cytotoxicity against somatic cells was tested with feline fetus lung cells (FFL) cultivated as described by Andersson et al. and murine neuroblastoma cells (MNA) as described by Kulonen et al. as well as porcine kidney tubular epithelial cell line (PK-15), cultured as reported earlier. All somatic cell lines were maintained in an atmosphere of 95% air, 5% CO2 and 95% relative humidity at 37 °C on RPMI 1640 (complete medium) in a cell culture cabinet (Heracell 150i; Thermo Fisher Scientific, Vantaa, Finland). The detached cells were seeded onto 96 well microtiter plates and exposed to the purified OPA, the final concentration of which ranged from 48.8 ng mL^−1 to 25 μg mL^−1 containing 10 levels in methanol. […] Then, the plates were analyzed by a microtiter plate reader (Fluoroskan Ascent, Thermo Scientific, Vantaa, Finland) at the excitation and emission wavelengths of 544 nm and 590 nm, respectively. […]

CC(C)=C[C@H]1C[C@H](C)[C@]2(CC[C@]3(C)C[C@H]4[C@H](C(=O)C[C@@]4(C)O)/C(C=O)=C\C[C@H]32)O1 [OPA, ophiobolin A]
viability at 2 h [1]: 38 to 73%
EC50 (boar spermatozoa; 2 h, read-out: Toxic endpoint EC50, Permeability to PI on motile cells): 1.6 µg/mL (≈ 3.99 µM)
EC50 (boar spermatozoa; 37 °C, motility maintained for 2 h, read-out: EC50, loss of plasma membrane integrity (PI) on motile sperm cells): 0.8 to 1.6 µg/mL (≈ 2 to 3.99 µM)
Concentration lethal to the sperm cells (disrupting the plasma membrane) (boar spermatozoa; motile at 37 °C, after 2 h): below 2000 ng/mL
Concentration inducing lethal damage (loss of plasma membrane integrity) (boar spermatozoa; swimming at 37 °C, short period): < 1 µg/mL
IC50 [2]: < 0.0488 µg/mL
